We go through two compounds from US8574871B2, “Genetically modified yeasts for the production of homogenous glycoproteins” (GLYCODE, priority 2007, dated 2013).

One assay has as its system alpha-1,2-mannosidase I. Nature of the assay: Mannosidase activity assay in yeast microsomes, with or without DMJ. The conditions noted are these: 120 μM DMJ, triplicate (FIG. 6). Type of assay: biochemical, C. Elegans. The procedure:
(§1) Mannosidase activity is measured by incubating for 4 hours at 37° C., with 4 mM of p-nitrophenyl-α-D-mannopyranoside with 100-200 μg of proteins (from total proteins or sub-cellular fractions) in 0.1 M of PBS, pH 6.5+/−120 μM DMJ (alpha-1,2-mannosidase I inhibitor) +/−12 μM SW (specific inhibitor of mannosidase II). Absorbance is measured at 405 nm.
The Adèle and Edgar yeasts, positive for the insertion of the expression cassette of mannosidase I in the gene URA3, are tested for their mannosidase I biochemical activity. […] The experiment was conducted in triplicate. We may observe in the wild S. cerevisiae and S. pombe strains, a mannosidase activity non-inhibited by DMJ.

The next assay deals with T1, mannosidase II (Mus musculus, UniProt P27046, V673G).
T1 construct: Amplification of a 3,453 by fragment; expressed in transfected cells; host or cells: S. cerevisiae and S. pombe with the TEF-promoter cassette integrated in LEU2 (strains Anaïs / Enrique); Golgi fractions
T1 sequence (P27046 1-1150 V673G): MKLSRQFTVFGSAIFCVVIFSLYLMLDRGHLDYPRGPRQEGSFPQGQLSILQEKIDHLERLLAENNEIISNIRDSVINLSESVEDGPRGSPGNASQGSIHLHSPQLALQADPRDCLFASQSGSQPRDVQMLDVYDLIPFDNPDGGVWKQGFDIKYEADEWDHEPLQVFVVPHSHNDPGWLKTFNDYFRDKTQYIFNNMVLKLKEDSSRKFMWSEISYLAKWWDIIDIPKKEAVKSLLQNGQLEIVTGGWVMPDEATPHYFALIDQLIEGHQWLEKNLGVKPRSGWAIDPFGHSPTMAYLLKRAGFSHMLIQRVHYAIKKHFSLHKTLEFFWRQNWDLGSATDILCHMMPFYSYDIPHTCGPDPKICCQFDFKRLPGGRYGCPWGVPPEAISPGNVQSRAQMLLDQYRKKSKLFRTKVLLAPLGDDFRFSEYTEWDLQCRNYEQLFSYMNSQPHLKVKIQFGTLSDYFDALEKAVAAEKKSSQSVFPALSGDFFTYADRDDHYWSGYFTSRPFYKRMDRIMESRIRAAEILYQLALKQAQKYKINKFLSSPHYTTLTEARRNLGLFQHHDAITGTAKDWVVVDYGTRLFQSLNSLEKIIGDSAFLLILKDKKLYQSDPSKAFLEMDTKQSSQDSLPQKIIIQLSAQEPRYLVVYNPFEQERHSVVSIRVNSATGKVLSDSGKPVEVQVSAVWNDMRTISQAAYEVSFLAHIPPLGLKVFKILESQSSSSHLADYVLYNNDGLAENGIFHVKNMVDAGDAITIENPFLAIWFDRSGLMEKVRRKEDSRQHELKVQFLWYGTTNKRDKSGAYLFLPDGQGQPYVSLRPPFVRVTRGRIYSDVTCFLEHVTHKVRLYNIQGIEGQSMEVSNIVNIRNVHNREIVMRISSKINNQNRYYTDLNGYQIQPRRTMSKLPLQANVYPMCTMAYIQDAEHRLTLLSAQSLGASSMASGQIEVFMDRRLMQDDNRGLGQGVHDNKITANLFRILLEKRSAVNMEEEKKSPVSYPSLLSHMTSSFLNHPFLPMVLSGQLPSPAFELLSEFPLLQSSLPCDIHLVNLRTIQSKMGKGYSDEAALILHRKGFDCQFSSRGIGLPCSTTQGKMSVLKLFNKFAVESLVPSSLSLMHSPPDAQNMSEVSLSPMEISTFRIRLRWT
The experiment in a line: Mannosidase activity assay in Golgian yeast fractions, with or without swainsonine. It counts as biochemical. The conditions noted are these: 12 μM SW (FIG. 9). On the procedure: as §1
According to FIG. 9, we may observe in the parent S. cerevisiae and S. pombe strains a mannosidase activity insensitive to the inhibitory action of swainsonine. […] Further as, the measured mannosidase II activity is detected in Golgian yeast fractions, we may infer that this enzyme is properly expressed in the secretion route at the Golgian system.

As for `OC[C@H]1NC[C@@H](O)[C@@H](O)[C@@H]1O` [DMJ, deoxymannojirimycin], the “inhibition of mannosidase activity by DMJ” value is “significant inhibition” in the assay with alpha-1,2-mannosidase I (selected S. cerevisiae and S. pombe strains with mannosidase I cassette); “non-inhibited” in the assay with alpha-1,2-mannosidase I (wild S. cerevisiae and S. pombe strains).

With `O[C@H]1[C@H]2[C@H](O)CCCN2C[C@H]1O` [swainsonine], the “inhibition of mannosidase activity by swainsonine” value was “insensitive” at mannosidase II (parent S. cerevisiae and S. pombe strains); “significant inhibition” against mannosidase II (selected S. cerevisiae and S. pombe strains with mannosidase II cassette).
